Molecules are shown by their SMILES. pIC50: −log10 of the molar value.

In the assay the target is T1, GST-tagged recombinant MCAK protein (amino acids 182 to 646 of the human MCAK protein) (Homo sapiens, UniProt Q99661).
T1 construct: corresponding to amino acids 182 to 646 of the human MCAK protein; GST; purchased Cytoskeleton, Denver Colo
In words: MCAK ATPase assay. The conditions noted are these: dose-response, read-out: 50% inhibitory concentration (IC50) for MCAK activity. The assay is classed as biochemical. The text has this:
Based on the instant data supporting a role for MCAK in p53 mediated cell death, it can be reasoned that MCAK will also fill a therapeutic niche for rational drug design targeting the mitotic checkpoint. Importantly, cancer cells with abrogated p53 contain high levels of MCAK, thereby providing a genetic determinant for therapeutic use of MCAK inhibitors. Accordingly, the inventor sought to identify and characterize inhibitors of MCAK function. MCAK utilizes the energy of Adenosine triphosphate (ATP) hydrolysis to carry out its MT depolymerization function. The inventor exploited this characteristic to utilize and optimize a commercially available in vitro assay that measures MCAK ATPase activity (Cytoskeleton, Denver Colo.). The components of the assay are: recombinant MCAK protein, ATP, pre-formed MTs, detection reagent for inorganic phosphate (Pi), and the appropriate buffers for the reaction. We utilized a glutathione S-transferase (GST)-tagged recombinant MCAK protein corresponding to amino acids 182 to 646 of the human MCAK protein, a region of the protein that contains the kinesin motor domain of MCAK. The ATPase activity of MCAK directly correlates to the presence of Pi in the reaction mixture.
The inventor used the MCAK ATPase to carry out a high-throughput screen (HTS) of a library of synthetic small molecules and various natural products. […]

T1 sequence (Q99661 182-646): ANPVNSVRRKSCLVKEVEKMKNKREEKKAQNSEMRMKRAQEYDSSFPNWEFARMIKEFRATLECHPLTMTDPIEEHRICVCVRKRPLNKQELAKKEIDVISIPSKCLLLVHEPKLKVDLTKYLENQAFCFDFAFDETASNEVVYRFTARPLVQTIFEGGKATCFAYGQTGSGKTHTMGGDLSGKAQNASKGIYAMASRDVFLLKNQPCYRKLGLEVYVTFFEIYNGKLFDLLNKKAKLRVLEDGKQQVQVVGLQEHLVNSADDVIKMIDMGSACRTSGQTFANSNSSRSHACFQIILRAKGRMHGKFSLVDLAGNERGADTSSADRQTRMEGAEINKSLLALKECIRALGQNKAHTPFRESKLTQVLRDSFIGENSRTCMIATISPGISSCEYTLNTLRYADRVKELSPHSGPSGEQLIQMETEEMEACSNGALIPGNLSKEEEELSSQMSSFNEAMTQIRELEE

As to `Cc1cc2c(C(C)C)c(O)c(O)c(C=O)c2c(O)c1-c1c(C)cc2c(C(C)C)c(O)c(O)c(C=O)c2c1O` [gossypol], the pIC50 was around 4.96.

These data come from US20110313021A1, “Method to rapidly identify critical p53 target genes that can be utilized for therapeutic intervention” (priority 2010, published 2011).
